The subject of assay [1] is Jurkat (clone E6-1) cells, NFAT luciferase reporter. The experiment in a line: Jurkat Reporter Assay (NFAT Luciferase). The note with it: Homo sapiens. Type of assay: cell-based. On the technique in general: A reporter such as luciferase makes a cellular process visible.
The subject of assay [2] is Phospho-Zap70 (Y-319) in Jurkat wild-type (clone E6-1) cells. The experiment in a line: Jurkat pZAP70 HTRF Assay. The conditions noted are these: Homo sapiens. Type of assay: cell-based.
Assay [3] deals with Recombinant human Cbl-b (aa 36-427) (Homo sapiens (Human), UniProt Q13191). The experiment in a line: Cbl-b Biochemical Assay (TR-FRET). The conditions noted are these: read-out: TR-FRET hCbl-b IC50. The method, boiled down: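 Two-step TR-FRET: 6 nM biotinylated Cbl-b preincubated 30-60 min with compound, then 60 min at RT with 1-2.5 nM Src-Zap70 and 0.5 mM ATP in HEPES pH 7.0 buffer, 1% DMSO. Stopped with 5 mM EDTA plus 100 nM UBE2D2-Ub-FL-BODIPY and 1 nM streptavidin-Tb, 60 min; 520 nm signal; IC50 from 4-parameter fit.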
Recombinant human Cbl-b (aa 36-427), sequence (Q13191 36-427): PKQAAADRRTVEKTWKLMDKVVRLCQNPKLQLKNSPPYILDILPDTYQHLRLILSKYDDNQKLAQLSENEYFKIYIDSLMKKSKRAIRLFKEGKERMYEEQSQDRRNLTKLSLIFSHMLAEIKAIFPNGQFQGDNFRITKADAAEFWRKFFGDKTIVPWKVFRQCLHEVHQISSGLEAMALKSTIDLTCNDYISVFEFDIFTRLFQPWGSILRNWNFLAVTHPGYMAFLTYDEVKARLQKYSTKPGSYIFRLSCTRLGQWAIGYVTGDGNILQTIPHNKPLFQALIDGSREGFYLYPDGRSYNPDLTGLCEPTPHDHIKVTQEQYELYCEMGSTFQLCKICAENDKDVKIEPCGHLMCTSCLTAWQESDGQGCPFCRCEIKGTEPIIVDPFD

[4] abbreviates: anti-CD3 stimulation, 6 hr, read-out: Jurkat NFAT EC50.
[5] abbreviates: anti-CD3 5 μg/ml, 3 hr, read-out: ZAP70 Jurkat EC50.

Like-named read-outs stand apart in the source and are kept apart here.

What is called EC50 is the concentration that produces a half-maximal response. What is called IC50 is the concentration that gives 50% inhibition.

With `CCNc1cc(-c2ccc(C#N)cc2-c2nncn2C)cc(N2Cc3c(cc(CN4CCC[C@@H](C)C4)cc3C(F)(F)F)C2=O)n1` [ADU-2, 4-[2-(Ethylamino)-6-(6-{[(3R)-3-methylpiperidin-1-yl]methyl}-1-oxo-4-(trifluoromethyl)-3H-isoindol-2-yl)pyridin-4-yl]-3-(4-methyl-1,2,4-triazol-3-yl) benzonitrile], the EC50 in assay [1] (6 h, read-out: Jurkat NFAT EC50 (μM)) was below 0.2 µM; in assay [2] (3 h, read-out: ZAP70 Jurkat EC50 (μM)) it was 0.2 to 1 µM. Further, the IC50 in assay [3] is at most 200 nM.
`Cn1cnnc1-c1cc(C#N)ccc1-c1cc(C2CC2)nc(N2Cc3c(cc(C4(O)CCC4)cc3C(F)(F)F)C2=O)c1` [AGM-5, 4-{2-Cyclopropyl-6-[6-(1-hydroxycyclobutyl)-1-oxo-4-(trifluoromethyl)-3H-isoindol-2-yl]pyridin-4-yl}-3-(4-methyl-1,2,4-triazol-3-yl)benzonitrile]: the EC50 in assay [1] (setting [4]) was below 0.2 µM; in assay [2] (setting [5]), 0.2 to 1 µM. The IC50 in assay [3] was at most 200 nM.
For `CCNc1cc(-c2ccc(C#N)cc2-c2nncn2C)cc(N2Cc3c(cc(CNC4CCCC4=O)cc3C(F)(F)F)C2=O)n1` (stereo not drawn) [AGC-5, 4-[2-(Ethylamino)-6-(1-oxo-6-{[(2-oxocyclopentyl)amino]methyl}-4-(trifluoromethyl)-3H-isoindol-2-yl)pyridin-4-yl]-3-(4-methyl-1,2,4-triazol-3-yl)benzonitrile] the same measures were below 0.2 µM, 0.2 to 1 µM and at most 200 nM.
In the case of `Cn1cnnc1-c1cc(C#N)ccc1-c1cc(C2CC2)nc(N2Cc3c(cc(CO)cc3C(F)(F)F)C2=O)c1` [AES-1, 4-(2-Cyclopropyl-6-(6-(hydroxymethyl)-1-oxo-4-(trifluoromethyl)isoindolin-2-yl)pyridin-4-yl)-3-(4-methyl-4H-1,2,4-triazol-3-yl)benzonitrile], the EC50 is below 0.2 µM in assay [1] (setting [4]) and 0.2 to 1 µM in assay [2] (setting [5]). Besides, the IC50 in assay [3] is at most 200 nM.
The matching figures for `CCOc1cc(-c2ccc(F)cc2-c2nncn2C)cc(N2Cc3c(cc(CNCC4(O)CCC4)cc3C(F)(F)F)C2=O)n1` [AGQ-2, 2-{6-Ethoxy-4-[4-fluoro-2-(4-methyl-1,2,4-triazol-3-yl)phenyl]pyridin-2-yl}-6-({[(1-hydroxycyclobutyl)methyl]amino}methyl)-4-(trifluoromethyl)-3H-isoindol-1-one]: below 0.2 µM, 0.2 to 1 µM and at most 200 nM.
